Results published in patent US12630600B2 (MEDIMMUNE LIMITED, priority 2022, dated 2026).
Starred links: 1 amine or outer side, 2 acyl side, 3 side chain; linkers in the order of their positions; H or OH if unused. Non-standard residues stand in square brackets, D forms with d. Residues, ends and D or L forms follow the SMILES beside them. Groups on a side chain read outwards from the residue. *: point of attachment. C20 diacid = O=C(O)CCCCCCCCCCCCCCCCCCC(=O)*; C18 diacid = O=C(O)CCCCCCCCCCCCCCCCC(=O)*; γGlu = O=C(O)[C@H](CCC(=O)[*:2])N[*:1]; αMeF = C[C@](N)(Cc1ccccc1)C(=O)O; AEEA = NCCOCCOCC(=O)O; Aib = CC(C)(N)C(=O)O

Target: T1, human GLP-1 receptor (hGLP-1R) (Homo sapiens, UniProt P43220)
T1 construct: expressed in transfected cells; host or cells: CHO
Test: cAMP production (HTRF) in CHO cells expressing human GLP-1 receptor
Format: cell-based
Conditions: Table 8; % GLP-1R activity relative to GLP-1 / % GlucR activity relative to glucagon

T1 sequence (P43220 24-463): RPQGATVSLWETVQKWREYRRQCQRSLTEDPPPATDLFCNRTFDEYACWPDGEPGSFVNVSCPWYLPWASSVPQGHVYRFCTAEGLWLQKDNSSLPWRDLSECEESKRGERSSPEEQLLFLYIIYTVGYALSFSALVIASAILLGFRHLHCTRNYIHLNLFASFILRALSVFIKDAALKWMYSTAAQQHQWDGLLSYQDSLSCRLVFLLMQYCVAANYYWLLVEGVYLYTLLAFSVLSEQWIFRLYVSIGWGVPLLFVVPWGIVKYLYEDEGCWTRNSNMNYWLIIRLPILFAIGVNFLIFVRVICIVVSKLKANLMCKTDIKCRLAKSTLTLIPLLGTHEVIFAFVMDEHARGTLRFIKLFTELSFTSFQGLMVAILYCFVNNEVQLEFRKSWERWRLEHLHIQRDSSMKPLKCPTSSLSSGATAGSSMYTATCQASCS

Compound	% Relative Potency Ratio
CC[C@H](C)[C@H](NC(=O)[C@H](Cc1c[nH]c2ccccc12)NC(=O)[C@H](CCCCNC(=O)COCCOCCNC(=O)COCCOCCNC(=O)CC[C@H](NC(=O)CC[C@H](NC(=O)CCCCCCCCCCCCCCCCCCC(=O)O)C(=O)O)C(=O)O)NC(=O)[C@@H](NC(=O)[C@](C)(Cc1ccccc1)NC(=O)[C@H](CC(=O)O)NC(=O)[C@H](CCC(N)=O)NC(=O)[C@H](C)NC(=O)[C@H](C)NC(=O)[C@H](CCCNC(=N)N)NC(=O)[C@H](CO)NC(=O)[C@H](CC(=O)O)NC(=O)[C@H](CC(C)C)NC(=O)[C@](C)(Cc1ccccc1)NC(=O)[C@H](CCCCN)NC(=O)[C@H](CO)NC(=O)[C@@H](NC(=O)[C@H](CC(=O)O)NC(=O)[C@H](CO)NC(=O)[C@@H](NC(=O)[C@](C)(Cc1ccccc1)NC(=O)[C@H](CO)NC(=O)CNC(=O)[C@H](Cc1c[nH]cn1)NC(=O)C(C)(C)NC(=O)[C@@H](N)Cc1c[nH]cn1)[C@@H](C)O)C(C)C)C(C)C)C(=O)N[C@@H](C)C(=O)N[C@@H](CC(N)=O)C(=O)N[C@H](C(N)=O)[C@@H](C)O [Peptide 374] (H-H[Aib]HGS[αMeF]TSDVSK[αMeF]LDSRAAQD[αMeF]VK([AEEA-AEEA-γGlu-γGlu-C20 diacid])WIANT-NH2; N-terminus assumed)	1.2
CC[C@H](C)[C@H](NC(=O)[C@H](CO)NC(=O)[C@H](CCCCNC(=O)COCCOCCNC(=O)COCCOCCNC(=O)CC[C@H](NC(=O)CCCCCCCCCCCCCCCCC(=O)O)C(=O)O)NC(=O)[C@@H](NC(=O)[C@](C)(Cc1ccccc1)NC(=O)[C@H](CC(=O)O)NC(=O)[C@H](CCC(N)=O)NC(=O)[C@H](C)NC(=O)[C@H](C)NC(=O)[C@H](CCCNC(=N)N)NC(=O)[C@H](CO)NC(=O)[C@H](CC(=O)O)NC(=O)[C@H](CC(C)C)NC(=O)[C@](C)(Cc1ccccc1)NC(=O)[C@H](CCCCN)NC(=O)[C@H](CO)NC(=O)[C@@H](NC(=O)[C@H](CC(=O)O)NC(=O)[C@H](CO)NC(=O)[C@@H](NC(=O)[C@](C)(Cc1ccccc1)NC(=O)[C@H](CO)NC(=O)CNC(=O)[C@H](Cc1c[nH]cn1)NC(=O)C(C)(C)NC(=O)[C@@H](N)Cc1c[nH]cn1)[C@@H](C)O)C(C)C)C(C)C)C(=O)N[C@@H](C)C(=O)N[C@@H](CC(N)=O)C(=O)N[C@H](C(N)=O)[C@@H](C)O [Peptide 379] (H-H[Aib]HGS[αMeF]TSDVSK[αMeF]LDSRAAQD[αMeF]VK([AEEA-AEEA-γGlu-C18 diacid])SIANT-NH2)	2.4
CC[C@H](C)[C@H](NC(=O)[C@H](Cc1c[nH]c2ccccc12)NC(=O)[C@H](CCCCNC(=O)COCCOCCNC(=O)COCCOCCNC(=O)CC[C@H](NC(=O)CCCCCCCCCCCCCCCCCCC(=O)O)C(=O)O)NC(=O)[C@@H](NC(=O)[C@H](Cc1ccccc1)NC(=O)[C@H](CC(=O)O)NC(=O)[C@H](CCC(N)=O)NC(=O)[C@H](C)NC(=O)[C@H](C)NC(=O)[C@H](CCC(N)=O)NC(=O)[C@H](CO)NC(=O)[C@H](CC(=O)O)NC(=O)[C@H](CC(C)C)NC(=O)[C@](C)(Cc1ccccc1)NC(=O)[C@H](CCCCN)NC(=O)[C@H](CO)NC(=O)[C@@H](NC(=O)[C@H](CC(=O)O)NC(=O)[C@H](CO)NC(=O)[C@@H](NC(=O)[C@](C)(Cc1ccccc1)NC(=O)[C@H](CO)NC(=O)CNC(=O)[C@H](Cc1c[nH]cn1)NC(=O)C(C)(C)NC(=O)[C@@H](N)Cc1c[nH]cn1)[C@@H](C)O)C(C)C)C(C)C)C(=O)N[C@@H](C)C(=O)N[C@@H](CC(N)=O)C(=O)N[C@H](C(N)=O)[C@@H](C)O [Peptide 356] (H-H[Aib]HGS[αMeF]TSDVSK[αMeF]LDSQAAQDFVK([AEEA-AEEA-γGlu-C20 diacid])WIANT-NH2)	2.1
CC[C@H](C)[C@H](NC(=O)[C@H](Cc1c[nH]c2ccccc12)NC(=O)[C@H](CCCCNC(=O)COCCOCCNC(=O)COCCOCCNC(=O)CC[C@H](NC(=O)CC[C@H](NC(=O)CCCCCCCCCCCCCCCCC(=O)O)C(=O)O)C(=O)O)NC(=O)[C@@H](NC(=O)[C@H](Cc1ccccc1)NC(=O)[C@H](CC(=O)O)NC(=O)[C@H](CCC(N)=O)NC(=O)[C@H](C)NC(=O)[C@H](C)NC(=O)[C@H](CCCNC(=N)N)NC(=O)[C@H](CO)NC(=O)[C@H](CC(=O)O)NC(=O)[C@H](CC(C)C)NC(=O)[C@](C)(Cc1ccccc1)NC(=O)[C@H](CCCCN)NC(=O)[C@H](CO)NC(=O)[C@@H](NC(=O)[C@H](CC(=O)O)NC(=O)[C@H](CO)NC(=O)[C@@H](NC(=O)[C@](C)(Cc1ccccc1)NC(=O)[C@H](CO)NC(=O)CNC(=O)[C@H](Cc1c[nH]cn1)NC(=O)C(C)(C)NC(=O)[C@@H](N)Cc1c[nH]cn1)[C@@H](C)O)C(C)C)C(C)C)C(=O)N[C@@H](C)C(=O)N[C@@H](CC(N)=O)C(=O)N[C@H](C(=O)NCC(=O)NCC(N)=O)[C@@H](C)O [Peptide 364] (H-H[Aib]HGS[αMeF]TSDVSK[αMeF]LDSRAAQDFVK([AEEA-AEEA-γGlu-γGlu-C18 diacid])WIANTGG-NH2; N-terminus assumed)	2.6
CC[C@H](C)[C@H](NC(=O)[C@H](Cc1c[nH]c2ccccc12)NC(=O)[C@H](CCCCNC(=O)COCCOCCNC(=O)COCCOCCNC(=O)CC[C@H](NC(=O)CCCCCCCCCCCCCCCCC(=O)O)C(=O)O)NC(=O)[C@@H](NC(=O)[C@H](Cc1ccccc1)NC(=O)[C@H](CC(=O)O)NC(=O)[C@H](CCC(N)=O)NC(=O)[C@H](C)NC(=O)C(C)(C)NC(=O)[C@H](CCCNC(=N)N)NC(=O)[C@H](CO)NC(=O)[C@H](CC(=O)O)NC(=O)[C@H](CC(C)C)NC(=O)[C@](C)(Cc1ccccc1)NC(=O)[C@H](CCCCN)NC(=O)[C@H](CO)NC(=O)[C@@H](NC(=O)[C@H](CC(=O)O)NC(=O)[C@H](CO)NC(=O)[C@@H](NC(=O)[C@](C)(Cc1ccccc1)NC(=O)[C@H](CO)NC(=O)CNC(=O)[C@H](Cc1c[nH]cn1)NC(=O)C(C)(C)NC(=O)[C@@H](N)Cc1c[nH]cn1)[C@@H](C)O)C(C)C)C(C)C)C(=O)N[C@@H](C)C(=O)N[C@@H](CC(N)=O)C(=O)N[C@H](C(N)=O)[C@@H](C)O [Peptide 365, H(Aib)HGS(αMePhe)TSDVSK(αMePhe)LDSR(Aib)AQDFVK(O2Oc-O2Oc-γE-C18diacid)24WIANT-amide] (H-H[Aib]HGS[αMeF]TSDVSK[αMeF]LDSR[Aib]AQDFVK([AEEA-AEEA-γGlu-C18 diacid])WIANT-NH2; N-terminus assumed)	0.3
CC[C@H](C)[C@H](NC(=O)[C@H](Cc1c[nH]c2ccccc12)NC(=O)[C@H](CCCCNC(=O)COCCOCCNC(=O)COCCOCCNC(=O)CC[C@H](NC(=O)CCCCCCCCCCCCCCCCC(=O)O)C(=O)O)NC(=O)[C@@H](NC(=O)[C@H](Cc1ccccc1)NC(=O)[C@H](CC(=O)O)NC(=O)[C@H](CCC(N)=O)NC(=O)[C@H](C)NC(=O)[C@H](C)NC(=O)[C@H](CCC(N)=O)NC(=O)[C@H](CO)NC(=O)[C@H](CC(=O)O)NC(=O)[C@H](CC(C)C)NC(=O)[C@](C)(Cc1ccccc1)NC(=O)[C@H](CCCCN)NC(=O)[C@H](CO)NC(=O)[C@@H](NC(=O)[C@H](CC(=O)O)NC(=O)[C@H](CO)NC(=O)[C@@H](NC(=O)[C@](C)(Cc1ccccc1)NC(=O)[C@H](CO)NC(=O)CNC(=O)[C@H](CCC(N)=O)NC(=O)C(C)(C)NC(=O)[C@@H](N)Cc1c[nH]cn1)[C@@H](C)O)C(C)C)C(C)C)C(=O)N[C@@H](C)C(=O)N[C@@H](CC(N)=O)C(=O)N[C@H](C(N)=O)[C@@H](C)O [Peptide 348] (H-H[Aib]QGS[αMeF]TSDVSK[αMeF]LDSQAAQDFVK([AEEA-AEEA-γGlu-C18 diacid])WIANT-NH2; N-terminus assumed)	116.0

Target: T2, human glucagon receptor (hGCGR) (Homo sapiens, UniProt P47871)
T2 construct: expressed in transfected cells; host or cells: CHO
Test: cAMP production (HTRF) in CHO cells expressing human glucagon receptor
Format: cell-based
Conditions: Table 6, modification at position 17, CHO cells expressing hGCGR, geometric mean, read-out: hGluc-R EC50
Procedure: Cells were re-suspended in assay buffer at a batch-dependent optimized concentration (typically hGLP-1R cells at 1×10^5 cells/mL, hGCGR cells at 2×10^5 cells/mL).
Cells were added to the assay plate using a multidrop dispenser and incubated at room temperature for 30 minutes before measuring the cAMP level using a cAMP dynamic 2 homogeneous time resolved Fluorescence (HTRF) kit (Cisbio Bioassays #62AM4PEJ) following the two-step protocol as per manufacturer's recommendations. In brief, anti-cAMP cryptate (donor fluorophore) and cAMP-d2 (acceptor fluorophore) were made up separately by diluting each 1 in 20 in conjugate and lysis buffer provided in the kit. Anti-cAMP cryptate was added to all wells of the assay plate, followed by cAMP-d2 added to all wells except non-specific binding (NSB) wells (to which conjugate and lysis buffer was added).
Data was transformed to % Delta F as described in the manufacturer's guidelines and analyzed by 4-parameter logistic fit to determine EC50 values.

T2 sequence (P47871 26-477): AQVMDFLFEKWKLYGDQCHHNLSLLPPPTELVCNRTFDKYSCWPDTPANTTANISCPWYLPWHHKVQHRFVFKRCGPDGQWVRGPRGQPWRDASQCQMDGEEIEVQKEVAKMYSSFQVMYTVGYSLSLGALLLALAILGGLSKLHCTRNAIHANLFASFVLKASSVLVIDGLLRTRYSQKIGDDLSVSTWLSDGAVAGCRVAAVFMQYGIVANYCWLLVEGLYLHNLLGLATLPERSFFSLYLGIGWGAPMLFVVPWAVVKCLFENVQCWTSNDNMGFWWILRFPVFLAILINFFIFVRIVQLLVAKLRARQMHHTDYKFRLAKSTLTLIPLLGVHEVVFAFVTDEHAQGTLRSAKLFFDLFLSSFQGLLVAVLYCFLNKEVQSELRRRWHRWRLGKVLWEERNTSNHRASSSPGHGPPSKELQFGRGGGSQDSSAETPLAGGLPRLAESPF

EC50 [nM]	Compound
0.702	CC(C)C[C@H](NC(=O)[C@H](Cc1c[nH]c2ccccc12)NC(=O)[C@H](CCCNC(=N)N)NC(=O)[C@@H](NC(=O)[C@H](Cc1ccccc1)NC(=O)[C@H](CC(=O)O)NC(=O)[C@H](CCCNC(=N)N)NC(=O)[C@H](C)NC(=O)[C@H](CCCNC(=N)N)NC(=O)[C@H](CCCCNC(=O)CC[C@H](NC(=O)CC[C@H](NC(=O)COCCOCCNC(=O)COCCOCCNC(=O)CC[C@H](NC(=O)CC[C@H](NC(=O)CCCCCCCCCCCCCCCCC(=O)O)C(=O)O)C(=O)O)C(=O)O)C(=O)O)NC(=O)[C@H](CO)NC(=O)[C@H](CC(=O)O)NC(=O)[C@H](CC(C)C)NC(=O)[C@](C)(Cc1ccccc1)NC(=O)[C@H](CCCCN)NC(=O)[C@H](CO)NC(=O)[C@@H](NC(=O)[C@H](CC(=O)O)NC(=O)[C@H](CO)NC(=O)[C@@H](NC(=O)[C@H](Cc1ccccc1)NC(=O)[C@@H](NC(=O)CNC(=O)[C@H](CCC(N)=O)NC(=O)C(C)(C)NC(=O)[C@@H](N)Cc1c[nH]cn1)[C@@H](C)O)[C@@H](C)O)C(C)C)C(C)C)C(=O)N[C@@H](CC(C)C)C(=O)N[C@@H](CCC(=O)O)C(=O)NC(C)(C)C(=O)NCC(=O)O [Peptide 144] (H-H[Aib]QGTFTSDVSK[αMeF]LDSK([γGlu-γGlu-AEEA-AEEA-γGlu-γGlu-C18 diacid])RARDFVRWLLE[Aib]G-OH; N-terminus assumed)
